We go through 77 molecules from patent US9040714B2 (MannKind Corporation, priority 2010, dated 2015).

This assay deals with IRE-1α-mediated XBP-1 splicing in human myeloma MM.1s cells. Description: Cellular EC50: endogenous XBP-1 splicing in myeloma cells by RT-PCR (DTT stress). Conditions: MM1.S, read-out: EC50_av. It counts as cell-based. How it is done: Human myeloma MM.1s cells are incubated with a compound for 1.25 hours before stressing the cells with 2 mM dithiothreitol (DTT). After an additional 45 minutes (2 hours total) with compound and DTT, the cells are harvested with TRIZOL® (a mono-phasic solution of phenol and guanidine isothiocyanate), and total RNA is prepared as directed by the manufacturer (Invitrogen). Human XBP-1 is amplified by RT-PCR with the following primers, which flank the 26 base unconventional intron excised by IRE-1α:
RT-PCR of unstressed (U) cells then generates the upper band. When cells are stressed (S) with the endoplasmic reticulum (ER) stressing agent DTT, IRE-1α is activated due to accumulating unfolded protein and the resulting RT-PCR, product is 26 base pairs shorter.
Compounds which pass specificity assays are assayed for cellular EC50 using endogenous XBP-1 splicing in myeloma cells. XBP-1 is regulated through the excision of a 26 nucleotide intron from the XBP-1 mRNA by the highly specific endoribonuclease activity of IRE-1α. […] This splicing event is used to measure IRE-1α activity on XBP-1 mRNA in cells and tissues.
Briefly, compounds are incubated in the presence or absence of an ER stress agent (e.g., DTT), and the ratio of XBP-1u (unspliced) to XBP-1 s (spliced) is quantified by RT-PCR. The ED50 is determined as the 50% XBP-1s to total XPB-1 levels.

[1] abbreviates: average cellular EC50, XBP-1 splicing in myeloma cells.

Read-outs that look alike come from different tables or passages of the source.

For the molecule `CC1CCN(C(=O)c2ccc(-c3ccc4c(C=O)c(O)ccc4n3)cc2)CC1` [Compound 47], under setting [1], the EC50 is greater than 10 µM.
Same read-out and setting: for `CCNC(=O)Cc1c(C)c2c(OCCOC)cc(O)c(C=O)c2oc1=O` [Example 162] the value was less than 10 µM; for `Cc1c(-c2ccc(C(=O)N3CCC(C)CC3)cc2)c(=O)oc2c(C=O)c(O)ccc12` [Example 19], less than 10 µM.
In the case of `COc1cc2c(=O)c(CC(=O)N3CCN(C)CC3)c(C)oc2c(C=O)c1O` [Example 208], the EC50 under setting [1] was greater than 10 µM.
For the molecule `COCCNC(=O)CCc1nc2c(C=O)c(O)ccc2[nH]1` [Example 231], under setting [1], the EC50 is greater than 10 µM.
The same measure, in the same setting: the value for `CCN(CC)CCc1c(C)c2ccc(O)c(C=O)c2oc1=O` [Example 4] was greater than 10 µM; that for `CCNC(=O)CCc1nc2c(C=O)c(O)ccc2[nH]1` [Example 234] was greater than 10 µM.
Same read-out and setting: the value for `O=Cc1c(O)ccc2sc(CC(=O)O)cc12` [Example 265] was greater than 10 µM; that for `COCCNC(=O)CCc1nc2c(C=O)c(O)ccc2o1` [Example 249] was greater than 10 µM; that for `COc1cc2c(=O)c(CC(=O)N3CCOCC3)c(C)oc2c(C=O)c1O` [Example 207] was greater than 10 µM.
On the same count and under the same terms, the value for `Cc1oc2c(C=O)c(O)ccc2c(=O)c1CC(=O)N1CCN(C)CC1` [Example 222] was less than 10 µM; that for `COCCOc1cc2c(C)c(CC(=O)N3CCN(C)CC3)c(=O)oc2c(C=O)c1O` [Example 189] was less than 10 µM.
As to `CCNC(=O)Cc1c(C)oc2c(C=O)c(O)cc(OC)c2c1=O` [Example 228], the EC50 under setting [1] was less than 10 µM.
As to `COc1cc(O)c(C=O)c2oc(=O)c(CC(=O)N3CCN(C)CC3)c(C)c12` [Example 178], the EC50 under setting [1] was less than 10 µM.
Same read-out and setting: for `COCCOc1cc(O)c(C=O)c2oc(=O)c(CC(=O)N3CCN(C)CC3)c(C)c12` [Example 161] the value was less than 10 µM.
Same read-out and setting: for `COCCc1c(C)c2c(O)cc(O)c(C=O)c2oc1=O` [Example 123] the value was less than 10 µM; for `Cc1c(C)c2cc(OCCN3CCOCC3)c(O)c(C=O)c2oc1=O` [Example 203], less than 10 µM; for `Cc1c(CC(=O)N2CCOCC2)c(=O)oc2c(C=O)c(O)c(OCCN3CCOCC3)cc12` [Example 206], 10 µM.
Turning to `Cc1oc2c(C=O)c(O)ccc2c(=O)c1CCC(=O)N1CCOCC1` [Example 216], the EC50 under setting [1] is less than 10 µM.
`COCCNC(=O)CCc1nc2ccc(O)c(C=O)c2n1C` [Example 237]: the EC50 under setting [1] is greater than 10 µM.
Still for that read-out and setting: the value for `CCOC(=O)CCc1c(C)c2cc(N(C)C(C)=O)c(O)c(C=O)c2oc1=O` [Example 144] was greater than 10 µM; that for `COc1cc2c(=O)c(CC(=O)NCCN(C)C)c(C)oc2c(C=O)c1O` [Example 211] was greater than 10 µM.
As to `Cc1oc2c(C=O)c(O)ccc2c(=O)c1CCC(=O)NCCN1CCOCC1` [Example 219], the EC50 under setting [1] is greater than 10 µM.
On to `CCNC(=O)Cc1c(C)oc2c(C=O)c(O)c(OC)cc2c1=O` [Example 209], for which the EC50 under setting [1] is less than 10 µM.
Still for that read-out and setting: for `CC1CCN(C(=O)c2ccc(-c3nc4ccc(O)c(C=O)c4s3)cc2)CC1` [Compound 57] the value was greater than 10 µM; for `COCCOc1cc(O)c(C=O)c2oc(=O)c(CC(=O)N3CCOCC3)c(C)c12` [Example 160], less than 10 µM.
`COc1cc(O)c(C=O)c2oc(C)c(CC(=O)N3CCOCC3)c(=O)c12` [Example 227]: the EC50 under setting [1] was less than 10 µM.
`O=Cc1c(O)ccc2nc(CCC(=O)NCCN3CCOCC3)[nH]c12` [Example 235]: under setting [1], the EC50 was greater than 10 µM.
In the case of `CN1CCN(C(=O)c2ccc(-c3nc4ccc(O)c(C=O)c4[nH]3)cc2)CC1` [Compound 62], the EC50 is greater than 10 µM.
For `CCNC(=O)CCc1c(C)c2cc(OCCN3CCOCC3)c(O)c(C=O)c2oc1=O` [Example 204], under setting [1], the EC50 is greater than 10 µM.
Regarding `O=Cc1c(O)ccc2oc(C(=O)N3CCOCC3)cc12` [Example 283], under setting [1], the EC50 was greater than 10 µM.
Turning to `COCCNC(=O)Cc1c(C)c2c(OCCOC)cc(O)c(C=O)c2oc1=O` [Example 159], the EC50 under setting [1] was less than 10 µM.
In the case of `CCOC(=O)CCc1nc2c(C=O)c(O)ccc2o1` [Example 247], the EC50 under setting [1] is greater than 10 µM.
Still for that read-out and setting: for `O=Cc1c(O)ccc2oc(CCC(=O)N3CCOCC3)nc12` [Example 250] the value was greater than 10 µM.
As to `CCNC(=O)c1cc2c(C=O)c(O)ccc2s1` [Example 261], the EC50 under setting [1] is less than 10 µM.
For `Cc1c(CCC(=O)N2CCOCC2)c(=O)oc2c(C=O)c(O)ccc12` [Example 69], under setting [1], the EC50 was less than 10 µM.
The same measure, in the same setting: for `Cc1c(Br)c(=O)oc2c(C=O)c(O)ccc12` [Example 1] the value was less than 10 µM; for `COCCc1c(C)c2cc(OC)c(O)c(C=O)c2oc1=O` [Example 125], less than 10 µM; for `CCNC(=O)Cc1c(C)oc2c(C=O)c(O)ccc2c1=O` [Example 223], less than 10 µM.
Still for that read-out and setting: the value for `COc1cc2c(C)c(CC(=O)N3CCOCC3)c(=O)oc2c(C=O)c1O` [Example 167] was less than 10 µM; that for `COC(=O)c1ccc(-c2nc3ccc(O)c(C=O)c3[nH]2)cc1` [Compound 59] was greater than 10 µM.
For `Cc1nc2c(C=O)c(O)ccc2o1` [Example 255], the EC50 under setting [1] is less than 10 µM.
Same read-out and setting: the value for `O=Cc1c(O)ccc2sc(CCC(=O)N3CCOCC3)cc12` [Example 268] was greater than 10 µM; that for `COCCNC(=O)CCc1c(C)oc2c(C=O)c(O)c(OC)cc2c1=O` [Example 212] was greater than 10 µM; that for `COCCNC(=O)Cc1c(C)c2cc(OCCN3CCOCC3)c(O)c(C=O)c2oc1=O` [Example 205] was 10 µM.
Same read-out and setting: for `COc1cc(O)c(C=O)c2oc(=O)c(C)c(CN(C)C)c12` [Example 135] the value was less than 10 µM; for `Cc1oc2c(C=O)c(O)ccc2c(=O)c1CCC(=O)N1CCN(C)CC1` [Example 88], greater than 10 µM.
In the case of `Cc1c(-c2ccc(C(=O)N3CCCC3)cc2)c(=O)oc2c(C=O)c(O)ccc12` [Example 18], the EC50 is less than 10 µM.
Consider `CN1CCN(C(=O)c2cc3c(C=O)c(O)ccc3o2)CC1` [Example 284], for which the EC50 under setting [1] is greater than 10 µM.
On the same count and under the same terms, the value for `O=Cc1c(O)ccc2oc(C(=O)NCCN3CCOCC3)cc12` [Example 286] was less than 10 µM; that for `CCNC(=O)c1cc2c(C=O)c(O)ccc2o1` [Example 285] was less than 10 µM.
With `COCCOc1cc2c(C)c(CC(=O)NCCN3CCOCC3)c(=O)oc2c(C=O)c1O` [Example 187], the EC50 under setting [1] is less than 10 µM.
Regarding `O=Cc1c(O)ccc2nc(-c3ccc(C(=O)NCCN4CCOCC4)cc3)[nH]c12` [Compound 60], the EC50 under setting [1] is greater than 10 µM.
Same read-out and setting: the value for `CN(C)CCNC(=O)c1cc2c(C=O)c(O)ccc2s1` [Example 263] was greater than 10 µM; that for `COCCNC(=O)c1cc2c(C=O)c(O)ccc2s1` [Example 258] was greater than 10 µM; that for `O=Cc1c(O)ccc2oc(C(=O)O)cc12` [Example 281] was greater than 10 µM.
With `Cn1c(CCC(=O)O)nc2c(C=O)c(O)ccc21` [Example 246], under setting [1], the EC50 is greater than 10 µM.
On the same count and under the same terms, for `COCCOc1cc2c(C)c(CC(=O)N3CCOCC3)c(=O)oc2c(C=O)c1O` [Example 188] the value was less than 10 µM; for `Cc1oc2c(C=O)c(O)ccc2c(=O)c1CC(=O)NCCN1CCOCC1` [Example 225], greater than 10 µM.
As to `COCCc1c(C)c2c(OC)cc(O)c(C=O)c2oc1=O` [Example 124], the EC50 under setting [1] was less than 10 µM.
The same measure, in the same setting: for `COc1cc2c(=O)c(CCC(=O)N3CCN(C)CC3)c(C)oc2c(C=O)c1O` [Example 94] the value was greater than 10 µM.
Same read-out and setting: the value for `COCCNC(=O)Cc1c(C)oc2c(C=O)c(O)cc(OC)c2c1=O` [Example 226] was less than 10 µM; that for `COCCNC(=O)c1cc2c(C=O)c(O)ccc2[nH]1` [Example 273] was greater than 10 µM; that for `Cn1c(CCC(=O)N2CCOCC2)nc2c(C=O)c(O)ccc21` [Example 242] was greater than 10 µM.
Consider `CC(C(=O)N1CCOCC1)c1nc2c(C=O)c(O)ccc2o1` (centres unmarked) [Example 254], for which, under setting [1], the EC50 is greater than 10 µM.
For the molecule `Cc1c(Br)c(=O)oc2c(C=O)c(O)c(F)cc12` [Example 9], the EC50 was less than 10 µM.
In the case of `CN1CCN(C(=O)CCc2nc3c(C=O)c(O)ccc3o2)CC1` [Example 251], the EC50 under setting [1] was greater than 10 µM.
For the molecule `COCCOc1cc(O)c(C=O)c2oc(=O)c(C)c(C)c12` [Example 165], under setting [1], the EC50 was less than 10 µM.
Take `CN1CCN(C(=O)CCc2nc3c(C=O)c(O)ccc3n2C)CC1` [Example 244]: under setting [1], the EC50 is greater than 10 µM.
Still for that read-out and setting: the value for `O=Cc1c(O)ccc2oc(CCC(=O)O)nc12` [Example 248] was greater than 10 µM; that for `CCOC(=O)CCc1cc2c(C=O)c(O)ccc2s1` [Example 267] was greater than 10 µM.
On the same count and under the same terms, for `COCCNC(=O)CCc1cc2c(C=O)c(O)ccc2s1` [Example 266] the value was less than 10 µM; for `CN1CCN(C(=O)c2cc3c(C=O)c(O)ccc3[nH]2)CC1` [Example 275], greater than 10 µM; for `CN(C)CCNC(=O)CCc1nc2c(C=O)c(O)ccc2[nH]1` [Example 236], greater than 10 µM.
The same measure, in the same setting: for `COCCNC(=O)c1cc2c(C=O)c(O)ccc2o1` [Example 282] the value was greater than 10 µM.
On to `O=Cc1c(O)ccc2sc(C(=O)N3CCOCC3)cc12` [Example 259], for which, under setting [1], the EC50 is greater than 10 µM.
Consider `O=Cc1c(O)ccc2nc(-c3ccc(C(=O)O)cc3)[nH]c12` [Compound 58], for which the EC50 was greater than 10 µM.
